Patent US20210315887A1, “METHODS OF ADMINISTERING THERAPY” (GALAPAGOS NV, priority 2018, published 2021)
“Also recorded” adds a separate entry of the source. Like-named read-outs stand apart in the source and are kept apart here.

Test: Phase I open-label drug-drug interaction study: single-dose plasma pharmacokinetics of compound 1 before and after repeat doses of rifampicin
Assay type: in vivo, human
Conditions: for Mean maximal compound 1 plasma concentration: from mean concentration-time profile; for Cmax / AUC(0-t): po, 600 mg; for Cmax: healthy male subjects; for concentration at 24 h: read-out: C24h
Method: A phase I, open-label, non-randomized, drug-drug interaction study in healthy male subjects is done to evaluate the impact of repeat doses of rifampicin, on the single-dose pharmacokinetics (PK) of compound 1 as well as to evaluate the safety and tolerability of a single dose of compound 1 administered before or after oral doses of rifampicin.
Eighteen healthy male subjects received a single oral dose of 600 mg compound 1 on Day 1. From Days 2 to 11, 600 mg rifampicin was administered once daily (q.d.) to all subjects for 10 consecutive days. On Day 12, subjects received a single oral dose of 600 mg of compound 1 (see Table 1). A follow-up visit is conducted between days 15 and 18.
On days 1, 2, 12, 13 (i.e. 1, 2, 3, 4, 5, 6, 7, 8, 12 and 24 hours post compound 1 administration on day 1 and day 12) and at the follow-up visit, blood samples for PK assessment of compound 1 are taken. Blood samples of 2 mL for the determination of compound 1 levels in plasma are collected by venipuncture (or indwelling catheter) in the arm, into vacuum tubes containing lithium heparin and are immediately chilled (ice bath).
Within 30 min after blood collection, the plasma is separated by centrifugation at 4° C. for 10 min at circa 1,500 g and transferred into 2 polypropylene tubes with at least 400 μL of plasma in the first aliquot and the remaining volume in the second aliquot. After appropriate labeling, the plasma samples are stored in the clinical center at −20° C.±10° C. within 2 h following centrifugation and are protected from direct sunlight.
Plasma concentrations were measured using validated liquid chromatography with tandem mass (LC/MS-MS) spectrometry methods with a limit of quantification of 1.00 ng/mL for compound 1, 20.0 mg/mL for cholesterol and 5.00 ng/mL for 4-β-hydroxycholesterol. Non-compartmental PK calculations are performed using Phoenix WinNonlin® (version 6.4).
The following parameters are determined for compound 1 from individual concentration-time profiles in plasma: • Cmax: maximum observed plasma concentration • tmax: time of occurrence of Cmax • AUC0-t: area under the plasma concentration-time curve from time zero till the time corresponding with the last observed quantifiable concentration, calculated by the linear up-logarithmic down trapezoidal rule • AUC0-24h: area under the plasma concentration-time curve from time zero till 24 h post-dose, calculated by the linear up-logarithmic down trapezoidal rule • C24h: plasma concentration observed at 24 h post-dose
Plasma concentrations and PK parameters of compound 1 are listed by day (Day 1: compound 1 before multiple rifampin doses; Day 12: compound 1 after multiple rifampin doses) for each subject. Descriptive statistics are calculated by day for the plasma concentration and PK parameters. Mean (±SE) concentration-time profiles are generated by day.
A mixed-effects model with day as fixed effect and subject as random effect is performed on the following natural log (ln)-transformed PK parameters of compound 1: Cmax, C24h, AUC0-t, and AUC0-24h. […] The 90% confidence interval (CI) of the point estimate is calculated using the mean square error of the analysis of variance.
As tmax is a discrete variable dependent on selected blood sampling times, day effect was assessed using a non-parametric test (Wilcoxon's signed-rank test).

[1] = point estimate of least-squares geometric means ratio, Day 12 relative to Day 1
[2] = rifampin 600 mg q.d. for 10 days, Day 12 vs Day 1

With `CCc1nc2c(C)cc(N3CCN(CC(=O)N4CC(O)C4)CC3)cn2c1N(C)c1nc(-c2ccc(F)cc2)c(C#N)s1` [Compound 1] the “Time post-dose at which mean maximal concentration is attained” value (Day 1, single 600 mg oral dose) was 2 h, the “Mean maximal compound 1 plasma concentration” value (Day 1, single 600 mg oral dose) was 7,870 ng/mL and the “Time post-dose at which mean maximal concentration is attained” value (Day 12, after multiple rifampin doses) was 2 h. For the same molecule, the “Mean maximal compound 1 plasma concentration” value (Day 12, single 600 mg oral dose after rifampin 600 mg q.d. 10 days) was 1,180 ng/mL, the “Impact of multiple rifampin intake on compound 1 clearance” value (Day 12 compared with Day 1) was “no impact” and the “Impact of multiple rifampin intake on apparent rate of elimination of compound 1” value (Day 12 compared with Day 1, visual inspection of profiles) was “no impact”. For the same molecule, the “Decrease of AUC0-24h by multiple rifampin intake” value (Day 12 vs Day 1) was 89.2%, the “Decrease of Cmax by multiple rifampin intake” value (Day 12 vs Day 1) was 83.2% and the “Bioavailability of compound 1 after multiple rifampin intake” value (as shown by point estimates, Day 12 vs Day 1) was “markedly lower”. The “Elimination of compound 1 (shape of log-linear mean concentration-time profile)” value (before and after multiple rifampin intake) was “biphasic”, the Cmax (male, human, plasma, single oral 600 mg compound 1, after multiple rifampin doses 600 mg q.d. 10 days (Day 12), N = 18, arithmetic mean) was 1440 ng/mL and the Cmax (male, human, plasma, single oral 600 mg compound 1, before multiple rifampin doses (Day 1), N = 18, arithmetic mean) was 8660 ng/mL. It also gave an AUC(0-t) (male, human, plasma, single oral 600 mg, after multiple rifampin doses (Day 12), N = 17, arithmetic mean, read-out: AUC0-24h) of 3750 ng·h/mL, an AUC(0-t) (male, human, plasma, single oral 600 mg, after multiple rifampin doses (Day 12), N = 18, arithmetic mean, read-out: AUC0-t) of 3570 ng·h/mL and an AUC(0-t) (male, human, plasma, single oral 600 mg, before multiple rifampin doses (Day 1), N = 18, arithmetic mean, read-out: AUC0-24h) of 36300 ng·h/mL. The AUC(0-t) (male, human, plasma, single oral 600 mg, before multiple rifampin doses (Day 1), N = 18, arithmetic mean, read-out: AUC0-t) was 36300 ng·h/mL, the concentration at 24 h (male, human, plasma, single oral 600 mg, after multiple rifampin doses (Day 12), N = 18, arithmetic mean) was 1.69 ng/mL and the concentration at 24 h (male, human, plasma, single oral 600 mg, before multiple rifampin doses (Day 1), N = 18, arithmetic mean) was 83.4 ng/mL. For the same molecule, the Tmax (male, human, plasma, single oral 600 mg, before multiple rifampin doses (Day 1), N = 18, median) was 2 h, the “AUC0-24h Comparison (PE %)” value [1] was 10.75% and the “AUC0-t Comparison (PE %)” value [1] was 10.24%. For the same molecule, the “C24h Comparison (PE %)” value [1] was 2.48%, the “Cmax Comparison (PE %)” value [1] was 16.78% and the “Decrease of AUC0-24h by multiple rifampin intake” value [2] was 9.3 fold. The “Decrease of Cmax by multiple rifampin intake” value [2] was 6.0 fold and the “Day effect (rifampin) on tmax” value (statistical analysis Day 12 vs Day 1) was “no significant effect; also recorded: no significant impact”.
